In patent publication US7119071B2, “Amino terminal substance P compositions and methods for using the same” (University of Medicine and Dentistry of New Jersey, priority 2002, dated 2006):

Tests used:
Type in all cases: cell-based, human
TGF-β in BM stroma = assay: Induction of TGF-β in BM stroma (CCL 64 growth inhibition bioassay); conditions: for TGF-β (pg/ml) 1st stimulation: BM stroma, 16 h, secreted and cell-bound, mean±SD; for TGF-β (pg/ml) 1st stimulation / TGF-β (pg/ml) 2nd stimulation: 10 nM SP(1-4) or 10 ng/ml SCF; for TGF-β (pg/ml) 2nd stimulation: BM stroma re-stimulated for 16 h after 16 h 1st stimulation
Experimental: (§1) Stromal cultures were prepared with BM aspirates from healthy donors as described^24. Briefly, stromal cells were cultured at 33° C. and at day 3, the granulocytes and red blood cells were removed by Ficoll-Hypaque density gradient. Cultures were reincubated with weekly replacement of 50% culture media until confluence. Cytokine, NK receptor and c-kit expressions were studied in confluent stroma, stimulated with 10 nM SP(1-4) and/or 10 ng/ml SCF. Stroma was stimulated in 3 ml sera-free cc-MEM, supplemented with insulin-transferring-selenium-A (Life Technologies, Grand Island, N.Y.). At 16 h, stromal monolayers were washed with sera-free α-MEM and then re-incubated for 16 h with media, 10 nM SP(1-4) or 10 ng/ml SCF. Controls included stroma cultured for 16 h or 32 h in media alone. Time-course and dose-response curves established the optimal concentrations of SCF and SP(1-4).
Growth inhibition of CCL 64 cells forms the basis of the bioassay used to quantitate active TGF-β^25. Each sample was tested in triplicate with […] of supernatants. TGF-β levels were determined from a standard curve established with TGF-β concentrations ranging from 0.001 to 10 ng/ml vs. cell concentration. The presence of TGF-β1 was verified by reanalyses of samples containing >20 ng/ml TGF-β with neutralizing anti-hTGF-β1^25. Neutralization was determined if the anti-TGF-β1 reversed the growth inhibitory effect of the supernatants. • 1. Biopanning of Phage Display Library and Selection of Clones
BM stroma was stimulated with 10 nM SP(1-4) or 10 ng/ml SCF (1st stimulation). After 16 h, cells were harvested or cultures were re-stimulated for 16 h (2nd stimulation) with 10 nM SP(1-4) or 10 ng/ml SCF. TGF-β and TNF-α levels were determined in the total volume of supernatants and cell extracts, obtained from one flask of stromal cells. The results are represented as the mean±SD of the total concentration (secreted and cell-bound/106 stromal cells). p<0.05 vs. unstimulated or SCF.

β-PPT-I mRNA = assay: Quantitative RT-PCR for β-PPT-I mRNA in BM stroma; conditions: n=6; for β-PPT-I mRNA, 1st stimulation: BM stroma, 10 nM SP(1-4) or 10 ng/ml SCF for 16 h, mean±SD; for β-PPT-I mRNA, 2nd stimulation: BM stroma washed and re-stimulated for 16 h after 16 h 1st stimulation
Experimental: as §1
(§2) Quantitative RT-PCR for NK-1, NK-2 and β-PPT-I mRNA was performed as described^3, 24. Briefly, 2 μg of total RNA from BM stroma was reverse transcribed and 200 ng cDNA used in PCR reactions with standard DNA at log10 fold dilutions ranging between 10^−2 and 10^−6 attomole/L. PCR products (10 μl) were separated on agarose containing ethidium bromide. The DNA was scanned with a Fluorimager (Molecular Dynamics, Sunnyvale, Calif.) and the densities analyzed with ImageQuant software (Molecular Dynamics, version 5.2). A standard curve was established for each unknown sample: Band densities of unknown/standard DNA vs. Log10 standard DNA concentration. The concentration of the unknown sample was read at the point where the ratio of the unknown and standard were equivalent. Construction of DNA standards was previously described^24. • 1. Immunofluorescence for NK Receptors
(§3) BM stroma was stimulated with 10 nM SP(1-4) or 10 ng/ml SCF for 16 h (1st stimulation). After this, cultures were washed and then re-stimulated further for 16 h with similar concentrations of SP(1-4) or SCF (2nd stimulation). NK-1, NK-2 and β-PPT-I mRNA levels were quantitative by RT-PCR. The results are represented as the mean±SD, n=6. Each experiment was performed with a different BM donor. p<0.05: * vs. unstimulated or SP(1-4). […]: ** vs. unstimulated or SP(1-4).

CFU-GM = assay: Clonogenic assay for CFU-GM in sera-free cultures; conditions: n=7
Experimental: BM aspirate was obtained from the posterior iliac crest of normal healthy volunteers. Mononuclear cells were isolated by Ficoll-Hypaque density gradient and then assayed for CFU-GM in sera-free cultures as described^3. Briefly, 10^5 BM mononuclear cells/ml were plated in methylcellulose with 10 or 1 nM of SP(1-4). Each experimental point was assayed in duplicate. Cultures were assayed in parallel in the presence or absence of anti-TGF-β or anti-TNF-α, each ranging between 2 μg/ml and 10 ng/ml. Cultures contained 3 U/ml of rhGM-CSF. At day 10, the number of colonies with >20 cells were counted.

NK-2 mRNA = assay: Quantitative RT-PCR for NK-2 mRNA in BM stroma; conditions: n=6; for NK-2 mRNA, 1st stimulation: BM stroma, 10 nM SP(1-4) or 10 ng/ml SCF for 16 h, mean±SD; for NK-2 mRNA, 2nd stimulation: BM stroma washed and re-stimulated for 16 h after 16 h 1st stimulation
Experimental: as §1, §2, §3

NK-1 mRNA = assay: Quantitative RT-PCR for NK-1 mRNA in BM stroma; conditions: n=6; for NK-1 mRNA, 1st stimulation: BM stroma, 10 nM SP(1-4) or 10 ng/ml SCF for 16 h, mean±SD; for NK-1 mRNA, 2nd stimulation: BM stroma washed and re-stimulated for 16 h after 16 h 1st stimulation
Experimental: as §1, §2, §3

NK-1 receptor = assay: Immunofluorescence for SP-binding sites (NK-1) in BM stroma; conditions: 10 ng/ml SCF and/or 10 nM SP(1-4), FIG. 2
Experimental: (§4) BM stroma was stimulated with 10 ng/ml of SCF. At 24 h, cells were washed and then immediately incubated at 4° C. for 2 h with 200 ng/ml of biotin-SP or biotin-NK-A. After this, cells were labeled with FITC-avidin for 30 min and then examined for fluorescence intensity with an Olympus Provis AX-70 at 480±40 nm/excitation and 535±50 nm/emission. […] The optimal experimental conditions were determined in dose-response and time-course studies. Specificity of binding by SP or NK-A was studied in competition labeling with the pan-tachykinin antagonist, spantide. • 2. TNF-α determination
(§5) Since NK-1 and NK-2 receptors mediated the hematopoietic effects of the tachykinins^5, this section describes the studies and their results designed to further determine the interacting receptor for SP(1-4). Due to the lack of specific antibodies to the human NK-1 and NK-2 receptors, their detection by immunofluorescence was performed with the preferred ligand that was conjugated to biotin: SP for NK-1 and NK-A for NK-2^12. Spantide, a pan-tachykinin antagonist that competes with the ligand for NK receptor binding was used to determine the specificity of binding.

NK-2 receptor = assay: Immunofluorescence for NK-A-binding sites (NK-2) in BM stroma; conditions: 10 ng/ml SCF and/or 10 nM SP(1-4), FIG. 2
Experimental: as §4, §5

c-kit = assay: Immunofluorescence for c-kit in BM stroma; conditions: 10 ng/ml SCF, 6 h to 24 h, dim in unstimulated stroma
Experimental: The relative expression of c-kit in BM stroma was determined by immunofluorescence. BM stroma was cultured on coverslips (Fisher Scientific, Springfield, N.J.) and then stimulated with 10 ng/ml of SCF. At different times after cell stimulation, cells were labeled with 50 ng/ml of biotinylated goat anti-c-kit and FITC-avidin. Non-specific binding was determined with biotinylated non-immune goat anti-IgG. Cells were immediately examined on an OlympusProbis microscope (New York/New Jersey Scientific, Inc., Middlebush, N.J.).

NEP mRNA = assay: Northern analysis of steady state NEP mRNA in BM stroma; conditions: 10 ng/ml SCF, FIG. 4A
Experimental: Northern analyses for steady state NEP and NK-1 mRNA were performed as described^28. For NEP mRNA, stromal cells were stimulated with SCF for 16 h in sera-free α-MEM supplemented with Insulin-Transferring-Selenium-A. At different times after, total RNA was extracted and 10 μg used for northern analyses. Membranes were consecutively hybridized with [α-^32P]-dATP-labeled cDNA probes for NEP and 18S rRNA as described^3. NK-1 mRNA was determined with total RNA from stromal cultures that were sequentially stimulated with SCF and SP(1-4), described above. The cDNA for NK-1 is previously described^29. NK-2 cDNA was prepared by RT-PCR with total RNA from BM stroma as template and the same primers used for quantitative RT-PCR (described above). The NK-2 fragment, which was equivalent to 274 bp was subcloned into pNoTA/T7 (5 Prime→3 Prime, Boulder, Colo.). The cDNA for human NEP sand 18S rRNA were purchased from American Type Culture Collection (Manassas, Va.).
Total RNA from unstimulated and stimulated (10 ng/ml SCF) BM stroma was analyzed for steady state NEP mRNA levels by northern analyses. The results shown in FIG. 4A indicate single bands at the predicted size of 1.8 kb. […] Analyses for SP and SP(1-4) were performed at different times using Ciphergen's ProteinChip Arrays. ELISA determined the levels of SP-IR in the supernatant and cell extracts of the stimulated stroma (5×10^6 stroma). […]

SP-IR = assay: Competitive ELISA for SP-immunoreactivity (SP-IR) in stimulated BM stroma; conditions: 10 ng/ml SCF, 5×10^6 stroma
Experimental: Competitive ELISA quantitated SP-IR as described^3. Briefly, Immulon 96-well plates (Dynatech Laboratories Inc., Chantilly, Va.) were precoated with streptavidin and then incubated with biotinylated SP (Chiron Mimotopes, Emeryville, Calif.). Equal volumes (50 μl) of unknown samples and optimum rabbit anti-SP were added to quadruplicate wells. Each sample was assayed as undiluted and three serial dilutions. Complexed anti-SP was detected with Alk Phos-conjugated goat anti-rabbit IgG and Sigma 104 phosphatase substrate. SP-IR levels were calculated from a standard curve developed with O.D. at 405 nm vs. 12 serial dilutions of known SP concentrations, ranging from 100 to 0.08 pg/ml.
Total RNA from unstimulated and stimulated (10 ng/ml SCF) BM stroma was analyzed for steady state NEP mRNA levels by northern analyses. The results shown in FIG. 4A indicate single bands at the predicted size of 1.8 kb. […] Analyses for SP and SP(1-4) were performed at different times using Ciphergen's ProteinChip Arrays. ELISA determined the levels of SP-IR in the supernatant and cell extracts of the stimulated stroma (5×10^6 stroma). An affinity protein chip with mobilized anti-SP determined the presence of SP(1-4) in extracts from 48 h-stimulated stroma. […] At 24 h, the total levels of SP-IR (supernatants and cell extracts) in stimulated stroma were 185±8 ng. SP levels were reduced to 12±5 ng at 48 h and to baseline levels (<2 ng) at 72 h (Table 3).

| Substance | TGF-β, stimulated BM stroma (TGF-β in BM stroma; 1st stimulation, text citing Table 1) [pg] | TGF-β (pg/ml) 1st stimulation (TGF-β in BM stroma) | β-PPT-I mRNA, 1st stimulation (β-PPT-I mRNA) | percent inhibition on CFU-GM (CFU-GM; 1 nM SP(1-4)) [%] | percent inhibition on CFU-GM (CFU-GM; 10 nM SP(1-4)) [%] | NK-2 mRNA, 1st stimulation (NK-2 mRNA) | NK-1 mRNA, 1st stimulation (NK-1 mRNA) | NK-1 expression (biotin-SP binding) (NK-1 receptor) | NK-2 expression (biotin-NK-A binding) (NK-2 receptor) | fluorescence intensity of c-kit labeling (c-kit) | NK-1 mRNA, 2nd stimulation (NK-1 mRNA) | steady state NEP mRNA (northern band) (NEP mRNA; 16 h and 24 h) | steady state NEP mRNA (northern band) (NEP mRNA; 48 h) | total levels of SP-IR (supernatants and cell extracts) (SP-IR; 24 h, unstimulated <2 ng) [ng] | total levels of SP-IR (supernatants and cell extracts) (SP-IR; 48 h) [ng] | total levels of SP-IR (supernatants and cell extracts) (SP-IR; 72 h) [ng] | TGF-β (pg/ml) 2nd stimulation (TGF-β in BM stroma) | β-PPT-I mRNA, 2nd stimulation (β-PPT-I mRNA) | NK-2 mRNA, 2nd stimulation (NK-2 mRNA) | TGF-β levels after 2nd stimulation (TGF-β in BM stroma; 1st stimulation SP(1-4), 2nd stimulation 16 h later, text citing Table 1) [pg] |
| --- | --- | --- | --- | --- | --- | --- | --- | --- | --- | --- | --- | --- | --- | --- | --- | --- | --- | --- | --- | --- |
| Arg-Pro-Lys-Pro (RPKP; listed as Homo sapiens) [SP(1-4), tetrapeptide resulting from degradation of SP by endopeptidases such as NEP] | 90 ± 15 | *90 ± 15 pg/ml | <1 | 55±4 | 65±6 | **510 ± 15 | <1 molecules/μg total RNA |  |  |  |  |  |  |  |  |  |  |  |  |  |
| SCF: stem cell factor, hematopoietic stimulator cytokine purchased from R&D Systems |  | <5 pg/mL | 640 ± 15 |  |  | 17 ± 3 | *1550 ± 26 molecules/μg total RNA | SP binds to stromal cells | did not bind | increased to bright | 1480±34 molecules/μg total RNA | Strong bands | no detectable band | 185 ± 8 | 12 ± 5 | < 2 |  |  |  |  |
| SCF→SCF: 1st and 2nd stimulation with 10 ng/ml SCF |  |  |  |  |  |  |  |  |  |  | *1480 ± 34 molecules/μg total RNA |  |  |  |  |  | <5 pg/mL | 45 ± 4 | 10 ± 2 |  |
| SP(1-4)→SP(1-4): 1st and 2nd stimulation with 10 nM SP(1-4) (RPKP; Substance P; UniProt P20366 58-61, looked up, fragment) |  |  |  |  |  |  |  |  |  |  | <1 molecules/μg total RNA |  |  |  |  |  | *64 ± 4 pg/ml | <1 | **484 ± 10 | 64 ± 4 |
